≈ marks a conversion by molar mass, not a printed value. Calls of active or inactive are those of the source. The rule behind the calls is not given here.
Experiments:
U2OS = assay: Cytotoxicity against human U2OS cells after 36 hrs by MTT assay; assay type: functional, cell-based
MCF7 = assay: Cytotoxicity against human MCF7 cells after 36 hrs by MTT assay; assay type: functional, cell-based; conditions: MCF7, 36 h
Lipaphis erysimi = assay: Insecticidal activity against Lipaphis erysimi Kaltenbach; assay type: functional
P388 = assay: Cytotoxicity against mouse P388 cells; assay type: functional; conditions: read-out: ED50 (the source's name)

With C=C(C)[C@H](CC[C@H]1C(=O)O[C@H]2C[C@]3(C)C4=CC[C@H]5C(C)(C)C(=O)CC[C@]5(C)[C@H]4CC[C@@]3(C)[C@@H]21)OO [MELIASENIN N] the IC50 (U2OS) was 8.8 µg/mL (≈ 18.2 µM), the IC50 (MCF7) was 3 µg/mL (≈ 6.19 µM) and the Activity (Lipaphis erysimi) was “inactive”.

CC(C)=CCC[C@@H](C)[C@@H]1[C@@H](O)C[C@]2(C)C3=CC[C@H]4C(C)(C)C(=O)CC[C@]4(C)[C@H]3CC[C@@]12C [KULINONE] gave an EC50 (P388) of 1.7 µg/mL (≈ 3.86 µM), an IC50 (U2OS) of 6.9 µg/mL (≈ 15.7 µM) and an IC50 (MCF7) of 42.5 µg/mL (≈ 96.4 µM). The Activity (Lipaphis erysimi) was “inactive”.

COC(=O)[C@H](C/C=C/C(C)(C)OO)[C@@H]1[C@@H](O)C[C@]2(C)C3=CC[C@H]4C(C)(C)C(=O)CC[C@]4(C)[C@H]3CC[C@@]12C [MELIASTATIN 3] showed an EC50 (P388) of 1.7 µg/mL (≈ 3.29 µM), an IC50 (U2OS) of 31.1 µg/mL (≈ 60.2 µM) and an IC50 (MCF7) of 48.6 µg/mL (≈ 94.1 µM). For the same compound, the Activity (Lipaphis erysimi) was “inactive”.

In the case of O=c1[nH]cc(F)c(=O)[nH]1 [FLUOROURACIL], the IC50 (U2OS) was 7.2 µg/mL (≈ 55.4 µM) and the IC50 (MCF7) was 34 µg/mL (≈ 261 µM).

For CCCCCCCCCCCCCCCC(=O)O[C@H]1CC[C@]2(C)[C@H]3CC[C@@]4(C)[C@H]([C@@H]5C[C@H]([C@H](O)C(C)(C)O)O[C@@H]5OC)CC[C@]4(C)C3=CC[C@H]2C1(C)C [MELIASENIN Q], the IC50 (U2OS) was 3.9 µg/mL (≈ 5.25 µM), the IC50 (MCF7) was over 50 µg/mL and the Activity (Lipaphis erysimi) was “inactive”.

In the case of CC[C@H](CC[C@](C)(O)[C@H]1[C@@H](O)C[C@H]2[C@@H]3[C@H](O)C=C4C[C@@H](O)CC[C@]4(C)[C@H]3CC[C@@]21C)C(C)C, the IC50 (U2OS) was 23.2 µg/mL (≈ 50.1 µM), the IC50 (MCF7) was over 50 µg/mL and the Activity (Lipaphis erysimi) was “inactive”.

C=C(C)C(O)CC[C@@H](C)[C@@H]1[C@@H](O)C[C@]2(C)C3=CC[C@H]4C(C)(C)C(=O)CC[C@]4(C)[C@H]3CC[C@@]12C (stereo partly specified) [MELIASTATIN 5] gave an EC50 (P388) of 1.7 µg/mL (≈ 3.72 µM), an IC50 (U2OS) of 9.5 µg/mL (≈ 20.8 µM) and an IC50 (MCF7) of 16 µg/mL (≈ 35 µM). The Activity (Lipaphis erysimi) was “inactive”.

In the case of CC(C)C(C)CC[C@](C)(O)[C@H]1[C@@H](O)C[C@H]2[C@@H]3[C@H](O)C=C4C[C@@H](O)CC[C@]4(C)[C@H]3CC[C@@]21C (single isomer, unassigned), the IC50 (U2OS) was 9.4 µg/mL (≈ 20.9 µM), the IC50 (MCF7) was 47.4 µg/mL (≈ 106 µM) and the Activity (Lipaphis erysimi) was “inactive”.

In the case of C=C(C)C(CC[C@@H](C)[C@@H]1[C@@H](O)C[C@]2(C)C3=CC[C@H]4C(C)(C)CCC[C@]4(C)[C@H]3CC[C@@]12C)OO (mixture of isomers) [MELIASENIN K], the IC50 (U2OS) was 7.2 µg/mL, the IC50 (MCF7) was 2.4 µg/mL and the Activity (Lipaphis erysimi) was “inactive”.

In the case of CO[C@H]1O[C@@H]([C@@H]2OC2(C)C)C[C@H]1[C@@H]1CC[C@]2(C)C3=CC[C@H]4C(C)(C)[C@@H](O)CC[C@]4(C)[C@H]3CC[C@@]12C [MELIASENIN P], the IC50 (U2OS) was 48.7 µg/mL (≈ 100 µM), the IC50 (MCF7) was 6.4 µg/mL (≈ 13.1 µM) and the Activity (Lipaphis erysimi) was “inactive”.

With C=C(C)C(CC[C@@H](C)[C@@H]1[C@@H](O)C[C@]2(C)C3=CC[C@H]4C(C)(C)C(=O)CC[C@]4(C)[C@H]3CC[C@@]12C)OO (mixture of isomers) [MELIASENIN L] the IC50 (U2OS) was 9.5 µg/mL, the IC50 (MCF7) was 9.8 µg/mL and the Activity (Lipaphis erysimi) was “inactive”.

With C[C@H](C/C=C/C(C)(C)OO)[C@@H]1[C@@H](O)C[C@]2(C)C3=CC[C@H]4C(C)(C)C(=O)CC[C@]4(C)[C@H]3CC[C@@]12C (relative stereo) [MELIASENIN J] the IC50 (U2OS) was 14.3 µg/mL (≈ 30.3 µM), the IC50 (MCF7) was 1.1 µg/mL (≈ 2.33 µM) and the Activity (Lipaphis erysimi) was “inactive”.

Work on COC(=O)[C@H](CCC=C(C)C)[C@@H]1[C@@H](O)C[C@]2(C)C3=CC[C@H]4C(C)(C)C(=O)CC[C@]4(C)[C@H]3CC[C@@]12C [METHYL KULONATE] yielded an EC50 (P388) of 1.7 µg/mL (≈ 3.51 µM), an IC50 (U2OS) of 14.6 µg/mL (≈ 30.1 µM) and an IC50 (MCF7) of 0.41 µg/mL (≈ 0.846 µM). For the same compound, the Activity (Lipaphis erysimi) was “inactive”.

CC(C)(/C=C/C[C@H]1C(=O)O[C@H]2C[C@]3(C)C4=CC[C@H]5C(C)(C)C(=O)CC[C@]5(C)[C@H]4CC[C@@]3(C)[C@@H]21)OO [MELIASENIN M] was tested, and the IC50 (U2OS) was 29.2 µg/mL (≈ 60.2 µM), the IC50 (MCF7) was 16.4 µg/mL (≈ 33.8 µM) and the Activity (Lipaphis erysimi) was “inactive”.

With C[C@H](C/C=C/C(C)(C)OO)[C@@H]1[C@@H](O)C[C@]2(C)C3=CC[C@H]4C(C)(C)[C@@H](O)CC[C@]4(C)[C@H]3CC[C@@]12C (relative stereo) [MELIASENIN I] the IC50 (U2OS) was 9.5 µg/mL (≈ 20 µM), the IC50 (MCF7) was 11.2 µg/mL (≈ 23.6 µM) and the Activity (Lipaphis erysimi) was “inactive”.

C=C(C)[C@@H](CC[C@H]1C(=O)O[C@H]2C[C@]3(C)C4=CC[C@H]5C(C)(C)C(=O)CC[C@]5(C)[C@H]4CC[C@@]3(C)[C@@H]21)OO [MELIASENIN O] was tested, and the IC50 (U2OS) was 23.9 µg/mL (≈ 49.3 µM), the IC50 (MCF7) was 2.3 µg/mL (≈ 4.75 µM) and the Activity (Lipaphis erysimi) was “inactive”.

From ChEMBL document CHEMBL1641393, “Triterpenoids and steroids from the fruits of Melia toosendan and their cytotoxic effects on two human cancer cell lines” (J Nat Prod, 2010)
